# Data taken from US7279179B2, “Liposome-entrapped topoisomerase inhibitors” (ALZA Corporation, priority 1988, dated 2007).
# Tests used:
# [1] = tested on: HT-29 colon cancer xenograft; experiment: HT-29 xenograft efficacy of liposome-entrapped CKD-602 (Example 5); assay type: in vivo, mice
# [2] = Plasma pharmacokinetics of liposome-entrapped and free CKD-602 in rats; conditions: 1 mg/kg
# in vivo = conditions: rat
# [3] = Plasma pharmacokinetics of liposome-entrapped and free topotecan in rats; assay type: in vivo; conditions: for Vol. Dist. / elimination rate constant: i.v.; for AUC / Cmax / clearance / half-life: rat, plasma, iv; for half-life: read-out: T ½ (converted)
# Description: FIGS. 4A–4B show the plasma concentration of topotecan as a function of time after administration to rats. […] FIG. 4B compares the two forms of the drug at a dosage of 5 mg/kg.
# [4] = tested on: HT-29 subcutaneous xenograft tumor; assay type: in vivo
# [5] = 20 mg/kg i.v. days 11, 18, 25, animals/group
# [6] = 25 mg/kg i.v. days 9, 16, 23, groups of 12 mice
structure (smiles),measurement,setting,value
CC[C@@]1(O)C(=O)OCc2c1cc1n(c2=O)Cc2c-1nc1ccccc1c2CCNC(C)C [free CKD602],tumor growth rate,[1]; 20 mg/kg,15.21 mm^3 per day
same,% T/C Day 29,"[1]; 20 mg/kg i.v. days 11, 18, 25",129.1%
same,% T/C Day 33,"[1]; 20 mg/kg i.v. days 11, 18, 25",120.1%
same,% T/C Day 36,"[1]; 20 mg/kg i.v. days 11, 18, 25",99.9%
same,Complete Remission,[1]; [5],0/6
same,Non-Responsive,[1]; [5],6/6
same,Partial Remission,[1]; [5],0/6
same,AUC,[2],0.37 µg/mL/h
same,calculated half-life,[2],12 min
"CC[C@@]1(O)C(=O)OCc2c1cc1n(c2=O)Cc2c-1nc1cc3c(cc1c2CN1CCN(C)CC1)OCCO3 [free MPE-camptothecin, 7-(4-methyl-piperazino-methylene)-10,11-ethylenedioxy-20(S)-camptothecin]",half-life,in vivo,~50 min
"CC[C@@]1(O)C(=O)OCc2c1cc1n(c2=O)Cc2cc3c(CN(C)C)c(O)ccc3nc2-1 [free topotecan, 9-dimethyl-aminomethyl-10-hydroxycamptothecin]",Vol. Dist.,[3]; Dosage = 2 mg/kg,173 mL
same,elimination rate constant,[3]; Dosage = 2 mg/kg,3.45 h⁻¹
same,Vol. Dist.,[3]; Dosage = 5 mg/kg,278 mL
same,elimination rate constant,[3]; Dosage = 5 mg/kg,2.33 h⁻¹
same,AUC,[3]; Dosage = 2 mg/kg,570 ng·h/mL
same,Cmax,[3]; Dosage = 2 mg/kg,2890 ng/mL
same,clearance,[3]; Dosage = 2 mg/kg,14.8 mL/min
same,half-life,[3]; Dosage = 2 mg/kg,12 min
same,AUC,[3]; Dosage = 5 mg/kg,1570 ng·h/mL
same,Cmax,[3]; Dosage = 5 mg/kg,8230 ng/mL
same,clearance,[3]; Dosage = 5 mg/kg,13.7 mL/min
same,half-life,[3]; Dosage = 5 mg/kg,18 min
same,tumor growth rate,[4]; 25 mg/kg,14.1 mm^3 per day
same,% T/C Day 29,"[4]; 25 mg/kg i.v. days 9, 16, 23",82.8%
same,% T/C Day 33,"[4]; 25 mg/kg i.v. days 9, 16, 23",79.0%
same,% T/C Day 36,"[4]; 25 mg/kg i.v. days 9, 16, 23",85.9%
same,Complete Remission (number of animals),[4]; [6],0
same,Non-Responsive (number of animals),[4]; [6],11
same,Partial Remission (number of animals),[4]; [6],1
